Data reported in the supplement of paper PMC10307832.

Experiments:
Assay in all cases: relative viability (nuclei count vs DMSO), 5 days (fraction); higher = more cells survive
Bortezomib + Palbociclib = compound: CC(C)C[C@H](NC(=O)[C@H](Cc1ccccc1)NC(=O)c1cnccn1)B(O)O [Bortezomib] + CC(=O)c1c(C)c2cnc(Nc3ccc(N4CCNCC4)cn3)nc2n(C2CCCC2)c1=O [Palbociclib] (partner 0.5 µM)
Method in brief: (§1)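 Dosing by pin tool came one day after lung cancer cell lines were seeded in 1536-well plates, using either one drug or a fixed anchor-drug dose plus five library-drug doses (not always all listed) in √10 steps. After 5 days, nuclei were counted on 4× images. Relative viability is treated-well nuclei count divided by vehicle-well nuclei count, and values are medians of duplicate plates.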

Bortezomib + Vorinostat = compound: CC(C)C[C@H](NC(=O)[C@H](Cc1ccccc1)NC(=O)c1cnccn1)B(O)O [Bortezomib] + O=C(CCCCCCC(=O)Nc1ccccc1)NO [Vorinostat] (partner 1 µM)
Method in brief: as §1

[1] = compound: CC1=CC(=NN1)NC2=CC(=NC(=N2)/C=C/C3=CC=CC=C3)N4CCN(CC4)C + COc1cccc2cc(-c3nc([C@H]4CC[C@H](C(=O)O)CC4)n4ncnc(N)c34)[nH]c12 [OSI-027] (partner 0.5 µM)
Method in brief: as §1

Obatoclax + Linsitinib = compound: COC1=CC(c2cc3ccccc3[nH]2)=N/C1=C\c1[nH]c(C)cc1C [Obatoclax] + C[C@]1(O)C[C@@H](c2nc(-c3ccc4ccc(-c5ccccc5)nc4c3)c3c(N)nccn32)C1 [Linsitinib] (partner 1 µM)
Method in brief: as §1

Cell Line	relative viability (Bortezomib + Palbociclib; first compound 0.0002 µM)	relative viability (Bortezomib + Palbociclib; first compound 0.000632 µM)	relative viability (Bortezomib + Palbociclib; first compound 0.002 µM)	relative viability (Bortezomib + Palbociclib; first compound 0.006325 µM)	relative viability (Bortezomib + Palbociclib; first compound 0.02 µM)	relative viability (Bortezomib + Vorinostat; first compound 0.0002 µM)	relative viability (Bortezomib + Vorinostat; first compound 0.000632 µM)	relative viability (Bortezomib + Vorinostat; first compound 0.002 µM)	relative viability (Bortezomib + Vorinostat; first compound 0.006325 µM)	relative viability (Bortezomib + Vorinostat; first compound 0.02 µM)	relative viability ([1]; first compound 0.08 µM)	relative viability ([1]; first compound 0.253 µM)	relative viability ([1]; first compound 0.8 µM)	relative viability ([1]; first compound 2.53 µM)	relative viability ([1]; first compound 8 µM)	relative viability (Obatoclax + Linsitinib; first compound 0.01 µM)	relative viability (Obatoclax + Linsitinib; first compound 0.03162 µM)	relative viability (Obatoclax + Linsitinib; first compound 0.1 µM)	relative viability (Obatoclax + Linsitinib; first compound 0.3162 µM)	relative viability (Obatoclax + Linsitinib; first compound 1 µM)
201T	0.339	0.367	0.37	0.33	0.218	0.964	0.936	0.993	0.916	0.328	0.718	0.756	0.803	0.531	0.112	1.04	1.01	1.02	1.06	1.03
A549	–	–	–	–	–	–	–	–	–	–	–	–	–	–	–	0.601	0.55	0.621	0.635	0.626
A-427	0.508	0.469	0.53	0.272	0.169	0.845	0.878	0.833	0.185	0.153	0.531	0.295	0.466	0.192	0.0905	1.07	0.775	1.11	1.15	1.13
ABC-1	0.619	0.709	0.269	0.229	0.328	0.689	0.415	0.288	0.29	0.312	0.453	0.54	0.644	0.179	0.143	0.619	0.768	0.815	0.928	0.372
BEN	0.443	0.461	0.489	0.445	0.236	0.559	0.586	0.558	0.509	0.317	0.294	0.264	0.271	0.244	0.162	0.948	0.828	0.913	0.948	0.796
CAL-12T	0.561	0.447	0.384	0.182	0.104	0.781	0.922	0.691	0.281	0.0995	0.666	0.651	0.447	0.14	0.12	0.646	0.773	0.919	0.809	0.526
COR-L23	0.308	0.274	0.183	0.0534	0.0546	0.474	0.446	0.192	0.0554	0.0587	0.817	0.753	0.67	0.361	0.0841	0.848	1	0.767	0.29	0.173
COR-L 105	0.439	0.381	0.345	0.378	0.355	0.846	0.306	0.824	0.276	0.271	0.773	0.834	0.678	0.255	0.178	0.989	0.964	0.998	1.06	0.401
Calu-6	–	–	–	–	–	–	–	–	–	–	–	–	–	–	–	0.95	0.898	0.946	0.852	0.652
ChaGo-K-1	0.956	0.903	0.942	0.382	0.136	0.709	0.753	0.827	0.441	0.162	0.566	0.548	0.528	0.191	0.131	–	–	–	–	–
EBC-1	–	–	–	–	–	–	–	–	–	–	–	–	–	–	–	0.771	0.879	0.922	0.87	0.65
EKVX	0.361	0.401	0.28	0.171	0.079	0.68	0.805	0.65	0.518	0.198	0.699	0.845	0.664	0.611	0.3	0.978	0.923	1.07	0.907	0.876
EMC-BAC-2	0.524	0.484	0.466	0.285	0.205	0.402	0.467	0.409	0.155	0.143	0.364	0.426	0.32	0.226	0.097	0.796	0.817	0.827	0.797	0.875
EPLC-272H	0.307	0.29	0.304	0.111	0.0584	0.333	0.4	0.0774	0.0603	0.0567	0.305	0.277	0.231	0.202	0.171	1.13	1.22	1.15	1.03	1.2
H3255	0.322	0.335	0.285	0.256	0.243	0.811	0.827	0.748	0.253	0.244	0.582	0.541	0.579	0.589	0.382	0.893	0.976	0.985	0.884	0.892
HARA	0.185	0.253	0.288	0.166	0.152	0.512	0.672	0.175	0.0466	0.0668	0.361	0.474	0.649	0.252	0.0476	0.923	0.316	1.03	0.703	0.919
